Measured values from US20170260226A1, “3-NITROGEN OR SULPHUR SUBSTITUTED OESTRA-1,3,5(10),16-TETRAENE AKR1C3 INHIBITORS” (BAYER PHARMA AKTIENGESELLSCHAFT, priority 2014, published 2017).

Experiments:
AKR1C3 [1] = target: T1, AKR1C3 (Homo sapiens, UniProt P42330); test: AKR1C3 inhibition in a cell-based system (HEK293 cells transfected with AKR1C3 expression plasmid, coumberon substrate); set-up: expressed in transfected cells; host or cells: HEK293 cells (ATCC); details: mean values; HEK293 cells transfected with AKR1C3, coumberon 6×10^−6M, 3 h; read-out: Cellular AKR1C3 inhibition IC50
T1 sequence (P42330 1-323): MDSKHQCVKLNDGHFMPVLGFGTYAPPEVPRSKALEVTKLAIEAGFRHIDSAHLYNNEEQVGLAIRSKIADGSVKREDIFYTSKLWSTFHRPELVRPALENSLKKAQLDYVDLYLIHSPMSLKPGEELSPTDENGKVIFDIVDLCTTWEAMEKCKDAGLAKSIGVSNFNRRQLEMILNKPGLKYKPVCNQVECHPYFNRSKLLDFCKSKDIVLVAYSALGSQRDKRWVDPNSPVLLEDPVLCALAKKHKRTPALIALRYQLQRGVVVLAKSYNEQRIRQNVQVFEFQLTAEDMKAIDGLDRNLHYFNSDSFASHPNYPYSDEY
Description: The inhibition of AKR1C3 by the substances described in this invention was measured in a cell-based assay using coumberon as the substrate for AKR1C3 (Halim, M., Yee, D., J., and Sames, D., J. (2008). Am Chem Soc, 130, 14123-14128 and Yee, D., J., Balsanek, V., Bauman, D., R., Penning, T., M., and Sames, D. (2006), Proc Natl Acad Sci USA 103, 13304-13309) (cf. Example 48).
The cell system used was HEK293 cells (ATCC, USA) (DMEM/F12, 10% FCS, 2 mM L-Glutamine, PSG). The cells were transfected with an AKR1C3 expression plasmid (pCMV6-AC-AKR1C3, GenBank Accession No. NM 003739.4), harvested after 24 hours and subsequently frozen. For assays, the frozen cells were thawed in assay medium (DMEM/F12 w/o phenolred, 0.005% Tween, 10% FCS, 2 mM L-Glutamine, PSG). Cells were seeded at 2500 cells/well into 384-well low volume or 1536-well plates (Greiner Bio-One, Frickenhausen, Germany) that contained 40-50 nl of a 100 fold concentrated compound solution in DMSO. After incubation at room temperature for 15 minutes, coumberon in PBS was added to a final concentration of 6×10^−6M. Following a 3 h incubation at room temperature, the reaction was stopped by lysing the cells with 0.4% Triton X-100. Coumberol fluorescence intensity was measured at 520 nm (excitation 380 nm) with a suitable measuring instrument (Pherastar, BMG). […] The data were normalized (transfected cells+coumberon=0% inhibition; no cells+coumberone=100% inhibition). Substances were usually tested at 11 different concentrations on the same microtiter plate in a range between 96.8 pM to 20 μM (20 μM, 5.9 μM, 1.7 μM, 0.5 μM, 0.15 μM, 44 nM, 12.9 nM, 3.8 nM, 1.1 nM, 0.3 nM and 96.8 pM). The dilutions were carried out on a 100 fold concentrated solution by serial dilution in duplicates. From the obtained data IC50 values were calculated by a 4-parameter fit.

AKR1C3 [2] = target: T1, AKR1C3; test: AKR1C3 enzyme inhibition assay (coumberone to coumberol fluorescence); format: biochemical; set-up: GST (cleaved yes); made in house; host or cells: E. coli; details: mean values; 10 μM NADPH, 0.3 μM coumberone, 3 h at room temperature
Description: The AKR1C3-inhibitory action of the substances of this invention was measured in the AKR1C3 assay described in the paragraphs which follow.
Essentially, the enzyme activity is measured by quantifying the coumberol formed from coumberone (Halim, M., Yee, D., J., and Sames, D., J. A., M. (2008). Chem Soc 130, 14123-14128 and Yee, D., J., Balsanek, V., Bauman, D., R., Penning, T., M., and Sames, D. (2006). Proc Natl Acad Sci USA, 103, 13304-13309). In this assay, the increase in the highly fluorescent coumberol can be determined by NADPH (nicotinamide adenine dinucleotide phosphate)-dependent reduction of the nonfluorescent coumberone by AKR1C3.
The enzyme used was recombinant human AKR1C3 (aldo-keto reductase family 1 member C3) (GenBank Accession No. NM_003739). This was expressed as the GST (glutathione S-transferase) fusion protein in E. coli and purified by means of glutathione-Sepharose affinity chromatography. The GST was removed by thrombin digestion with subsequent size exclusion chromatography (Dufort, I., Rheault, P., Huang, X., F., Soucy, P., and Luu-The, V. (1999). Endocrinology,140, 568-574).
For the assay, 40-50 nl of a 100-fold concentrated solution of the test substance in DMSO were pipetted into a black low-volume 384-well microtitre plate (Greiner Bio-One, Frickenhausen, Germany), 2-2.5 μl of a solution of AKR1C3 in assay buffer [50 mM potassium phosphate buffer pH 7, 1 mM DTT, 0.0022% (w/v) Pluronic F-127, 0.01% BSA (w/v) and protease inhibitor cocktail (complete, EDTA-free Protease Inhibitor Cocktail from Roche)] were added and the mixture was incubated for 20 min, in order to enable preliminary binding of the substances to the enzyme prior to the enzyme reaction. Then the enzyme reaction was started by adding 2-2.5 μl of a solution of NADPH and coumberone in assay buffer (final assay concentration was 10 μM NADPH and 0.3 μM coumberone) and the resulting mixture was incubated at room temperature for 3 h. Typical concentrations were depending on the linear range of the enzyme reaction during the reaction time about 1 nM. The reaction was stopped by adding 2 μl of a stop solution consisting of the AKR1C3 inhibitor EM-1404 to a final concentration of 1 μM. Subsequently, the fluorescence of coumberol was measured at 520 nm (excitation at 380 nm) with a suitable measuring instrument (Pherastar, BMG). […] The data were normalized (enzyme+coumberon substrate in assay buffer=0% inhibition; coumberone substrate only in assay buffer=100% inhibition). Substances were usually tested at 11 different concentrations on the same microtiter plate in a range between 96.8 pM to 20 μM (20 μM, 5.9 μM, 1.7 μM, 0.5 μM, 0.15 μM, 44 nM, 12.9 nM, 3.8 nM, 1.1 nM, 0.3 nM and 96.8 pM). The dilutions were carried out on a 100 fold concentrated solution by serial dilution in duplicates. From the obtained data IC50 values were calculated by a 4-parameter fit.

In the case of `CN(c1ccc2c(c1)CC[C@@H]1[C@@H]2CC[C@]2(C)C(c3cncc(F)c3)=CC[C@@H]12)S(=O)(=O)CCC(=O)O` [Example 38, 3-{[17-(5-fluoropyridin-3-yl)estra-1(10),2,4,16-tetraen-3-yl](methyl)sulfamoyl}propanoic acid], the IC50 (AKR1C3 [1]) is reported as 860 nM and the IC50 (AKR1C3 [2]) is reported as 4.9 nM.
With `C[C@]12CC[C@@H]3c4ccc(S(C)(=N)=O)cc4CC[C@H]3[C@@H]1CC=C2c1cncc(F)c1` (stereo partly drawn) [Example 46, 17-(5-fluoropyridin-3-yl)-3-(S-methylsulfonimidoyl)estra-1(10),2,4,16-tetraene] the IC50 (AKR1C3 [1]) was 30 nM and the IC50 (AKR1C3 [2]) was 2.2 nM.
In the case of `C[C@]12CC[C@@H]3c4ccc(S(C)(=O)=O)cc4CC[C@H]3[C@@H]1CC=C2c1cncc(F)c1` [Example 08, 17-(5-fluoropyridin-3-yl)-3-(methylsulfonyl)estra-1(10),2,4,16-tetraene], the IC50 (AKR1C3 [1]) is reported as 80 nM and the IC50 (AKR1C3 [2]) is reported as 4.1 nM.
`CN(CCCC(=O)O)c1ccc2c(c1)CC[C@@H]1[C@@H]2CC[C@]2(C)C(c3cncc(F)c3)=CC[C@@H]12` [Example 44, 4-{[17-(5-fluoropyridin-3-yl)estra-1(10),2,4,16-tetraen-3-yl](methyl)amino}butanoic acid] showed an IC50 (AKR1C3 [1]) of 1120 nM and an IC50 (AKR1C3 [2]) of 18.5 nM.
`C[C@]12CC[C@@H]3c4ccc(S(=O)(=O)CCCC(=O)O)cc4CC[C@H]3[C@@H]1CC=C2c1cncc(Cl)c1` [Example 19, 4-{[17-(5-chloropyridin-3-yl)estra-1,3,5(10),16-tetraen-3-yl]sulfonyl}butanoic acid] was tested, and the IC50 (AKR1C3 [1]) was 150 nM and the IC50 (AKR1C3 [2]) was 1.7 nM.
Molecule `C[C@]12CC[C@@H]3c4ccc(NC(=O)CCc5nn[nH]n5)cc4CC[C@H]3[C@@H]1CC=C2c1cncc(F)c1` [Example 32, N-[17-(5-fluoropyridin-3-yl)estra-1(10),2,4,16-tetraen-3-yl]-3-(2H-tetrazol-5-yl)propanamide] has an IC50 (AKR1C3 [1]) of 2170 nM and an IC50 (AKR1C3 [2]) of 11.8 nM.
Work on `CN(C(=O)CCc1nn[nH]n1)c1ccc2c(c1)CC[C@@H]1[C@@H]2CC[C@]2(C)C(c3cncc(F)c3)=CC[C@@H]12` [Example 33, N-[17-(5-fluoropyridin-3-yl)estra-1(10),2,4,16-tetraen-3-yl]-N-methyl-3-(2H-tetrazol-5-yl)propanamide] yielded an IC50 (AKR1C3 [1]) of 260 nM and an IC50 (AKR1C3 [2]) of 2.5 nM.
For `Cc1cc(C2=CC[C@H]3[C@@H]4CCc5cc(S(=O)(=O)N(C)CCC(=O)O)ccc5[C@H]4CC[C@]23C)cnn1` [Example 07, N-methyl-N-{[17-(6-methylpyridazin-4-yl)estra-1(10),2,4,16-tetraen-3-yl]sulfonyl}-beta-alanine], the IC50 (AKR1C3 [1]) was 800 nM and the IC50 (AKR1C3 [2]) was 0.5 nM.
In the case of `C[C@]12CC[C@@H]3c4ccc(NC(=O)CCC(N)=O)cc4CC[C@H]3[C@@H]1CC=C2c1cncc(F)c1` [Example 26, N-[17-(5-fluoropyridin-3-yl)estra-1(10),2,4,16-tetraen-3-yl]butanediamide], the IC50 (AKR1C3 [1]) is reported as 150 nM and the IC50 (AKR1C3 [2]) is reported as 8.6 nM.
With `C[C@]12CC[C@@H]3c4ccc(S(=O)(=O)CCCC(=O)O)cc4CC[C@H]3[C@@H]1CC=C2c1cccnc1` [Example 12, 4-{[17-(pyridin-3-yl)estra-1(10),2,4,16-tetraen-3-yl]sulfonyl}butanoic acid] the IC50 (AKR1C3 [1]) was 700 nM and the IC50 (AKR1C3 [2]) was 12 nM.
For `Cc1cncc(C2=CC[C@H]3[C@@H]4CCc5cc(S(=O)(=O)CCCC(=O)O)ccc5[C@H]4CC[C@]23C)c1` [Example 17, 4-{[17-(5-methylpyridin-3-yl)estra-1,3,5(10),16-tetraen-3-yl]sulfonyl}butanoic acid], the IC50 (AKR1C3 [1]) was 170 nM and the IC50 (AKR1C3 [2]) was 1.6 nM.
Molecule `CC(=O)Nc1ccc2c(c1)CC[C@@H]1[C@@H]2CC[C@]2(C)C(c3cncc(F)c3)=CC[C@@H]12` [Example 40, N-[17-(5-fluoropyridin-3-yl)estra-1(10),2,4,16-tetraen-3-yl]acetamide] has an IC50 (AKR1C3 [1]) of 100 nM and an IC50 (AKR1C3 [2]) of 5.3 nM.
`Cc1ccc(C2=CC[C@H]3[C@@H]4CCc5cc(S(=O)(=O)CCCC(=O)O)ccc5[C@H]4CC[C@]23C)cn1` [Example 15, 4-{[17-(6-methylpyridin-3-yl)estra-1,3,5(10),16-tetraen-3-yl]sulfonyl}butanoic acid] was tested, and the IC50 (AKR1C3 [1]) was 3180 nM and the IC50 (AKR1C3 [2]) was 73 nM.
With `C[C@]12CC[C@@H]3c4ccc(NC(=O)CCC(=O)O)cc4CC[C@H]3[C@@H]1CC=C2c1cncc(F)c1` [Example 23, 4-{[17-(5-fluoropyridin-3-yl)estra-1(10),2,4,16-tetraen-3-yl]amino}-4-oxobutanoic acid] the IC50 (AKR1C3 [1]) was 780 nM and the IC50 (AKR1C3 [2]) was 3.8 nM.
`CN(CCC(=O)O)S(=O)(=O)c1ccc2c(c1)CC[C@@H]1[C@@H]2CC[C@]2(C)C(c3cncc(F)c3)=CC[C@@H]12` [Example 02, N-{[17-(5-fluoropyridin-3-yl)estra-1(10),2,4,16-tetraen-3-yl]sulfonyl}-N-methyl-beta-alanine] showed an IC50 (AKR1C3 [1]) of 380 nM and an IC50 (AKR1C3 [2]) of 3.5 nM.
